# Earlier results as cited in patent US20090155388A1, “WEIGHT PHYTO-NUTRACEUTICAL SYNERGISTIC COMPOSITION” (priority 2006, published 2009).
# How the values were obtained:
# [1] = 10 studies
# [2] = 36 obese patients, maintenance period
# [3] = female mice
# [4] = test system: FAS (fatty acid synthase)
# [5] = test system: bacterial resistance mechanism (multidrug pump); conditions: in vitro
# [6] = test system: hypothalamic neurons
# [7] = third ventricle (i.c.v.) administration
# [8] = test system: lipoprotein lipase (LPL); conditions: vanadate-stimulated
# [9] = 89 mildly overweight women
# [10] = in vivo
compound,measurement,setting,value
Chromium picolinate,effect on reducing body weight compared with placebo,[1],relatively small effect
same,lean body mass,[2],able to increase lean body mass
same,insulin sensitivity,"37 patients, with sulfonylurea agents",significantly improves insulin sensitivity
same,body weight gain and visceral fat accumulation,compared with placebo,significantly attenuated body weight gain and visceral fat accumulation
CNCCC(Oc1ccc(C(F)(F)F)cc1)c1ccccc1 (stereo not drawn) [fluoxetine],"hyperphagic effect of 5-HT depletor, 5-HT1A agonist, 5-HT antagonist and glucose antimetabolite",[3],significantly antagonized
catechin gallate [(−)-CG],inhibition of FAS,[4],very potent inhibitor of FAS
"COc1cc([C@H]2Oc3cc(-c4cc(=O)c5c(O)cc(O)cc5o4)cc(OC)c3O[C@@H]2CO)ccc1O (racemic) [5′-methoxyhydnocarpin (5′-MHC), 5′-methoxyhydnocarpin]",potentiation of activity of berberine alkaloids,[5],strongly potentiated
C/C=C(\C)C(=O)O[C@@H]1C[C@H]2[C@@H](CC=C3C[C@@H](O[C@H]4C[C@H](OC)[C@H](O[C@H]5C[C@H](OC)[C@H](O[C@@H]6O[C@H](C)[C@@H](O)[C@H](OC)[C@H]6O)[C@@H](C)O5)[C@@H](C)O4)CC[C@@]32C)[C@@]2(O)CC[C@H](C(C)=O)[C@@]12C [P57AS3],increase of ATP content,[6],50-150%
same,reduction of subsequent 24-h food intake,[7],40-60%
"C[C@@H]1O[C@@H](O[C@H]2C(=O)c3c(O)cc(O)cc3O[C@@H]2c2ccc(O)c(O)c2)[C@H](O)[C@H](O)[C@H]1O [Astilbin, astilbin]",release of LPL activity,[8],enhanced the release of lipoprotein lipase (LPL) activity
"O=C(O)CC(O)(C(=O)O)C(O)C(=O)O (single isomer, unassigned; (-)) [(−)-Hydroxycitric acid (HCA), (−)-Hydroxycitric acid]",reduction of body weight,[9],significantly greater reduction of body weight
same,"body weight, feed consumption, adverse effects",[10],significant decrease in body weight and reduction in feed consumption without any adverse effects
